Each molecule was assayed against T1, NLRP3 inflammasome (Homo sapiens, UniProt Q96P20) (assay: ASC-SPECK formation in THP-1 cells after gramicidin stimulation (NLRP3 inflammasome activation)). Conditions: PMA-treated human monocytic THP-1 cells, compound 1 h before 12.5 ug/ml gramicidin, 3 h, ASC SPECK imaging; read-out: EC50 (nM) for Examples that inhibit NLRP3 inflammasome activation.
T1 construct: host or cells: THP-1 human monocytic cells, PMA-treated, stimulated with gramicidin
T1 sequence (Q96P20 whole entry): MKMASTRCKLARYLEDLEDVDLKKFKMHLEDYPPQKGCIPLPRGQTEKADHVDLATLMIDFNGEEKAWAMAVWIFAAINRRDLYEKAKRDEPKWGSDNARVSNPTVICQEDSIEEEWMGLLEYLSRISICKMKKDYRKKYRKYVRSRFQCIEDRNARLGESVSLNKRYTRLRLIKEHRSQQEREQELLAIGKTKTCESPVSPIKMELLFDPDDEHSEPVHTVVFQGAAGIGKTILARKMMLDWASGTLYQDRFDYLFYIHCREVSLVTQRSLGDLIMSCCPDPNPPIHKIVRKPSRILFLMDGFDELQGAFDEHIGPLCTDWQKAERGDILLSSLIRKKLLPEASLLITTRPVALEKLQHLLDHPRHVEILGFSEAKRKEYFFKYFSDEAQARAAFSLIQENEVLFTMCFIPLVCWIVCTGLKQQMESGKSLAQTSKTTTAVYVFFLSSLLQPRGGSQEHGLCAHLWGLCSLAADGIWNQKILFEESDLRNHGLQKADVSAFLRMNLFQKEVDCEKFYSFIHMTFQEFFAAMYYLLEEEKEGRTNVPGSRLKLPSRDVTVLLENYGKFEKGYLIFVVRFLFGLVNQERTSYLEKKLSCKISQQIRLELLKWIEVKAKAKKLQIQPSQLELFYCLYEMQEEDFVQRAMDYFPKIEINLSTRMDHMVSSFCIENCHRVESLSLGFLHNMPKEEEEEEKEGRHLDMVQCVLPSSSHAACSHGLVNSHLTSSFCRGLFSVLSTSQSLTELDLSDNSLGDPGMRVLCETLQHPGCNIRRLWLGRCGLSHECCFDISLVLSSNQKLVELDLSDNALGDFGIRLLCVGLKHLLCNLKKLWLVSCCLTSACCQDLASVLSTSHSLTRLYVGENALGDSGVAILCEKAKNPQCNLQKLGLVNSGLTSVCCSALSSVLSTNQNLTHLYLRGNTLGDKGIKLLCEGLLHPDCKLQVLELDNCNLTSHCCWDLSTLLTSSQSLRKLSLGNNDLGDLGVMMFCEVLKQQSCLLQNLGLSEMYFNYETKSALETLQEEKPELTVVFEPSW
Format: cell-based
Procedure: The ability of compounds to inhibit NLRP3 inflammasome activation was determined in vitro by monitoring formation of the ASC-SPECK in human monocytic THP-1 cells after stimulation. THP-1 cells (ATCC catalog #TIB-202) were maintained in complete growth media containing Roswell Park Memorial Institute RPMI (ATCC catalog #30-2001), 10% heat inactivated fetal bovine serum, 1× penicillin/streptomycin and 0.05 mM 2-mercaptoethanol. At the start of the assay, undifferentiated THP-1 cells were plated at a density of 20,000 cells per well in a 384-well plate (Poly-D-lysine coated Cell Carrier Ultra microplate, Perkin Elmer catalog #6057500) in complete growth media supplemented with 10 ng/ml phorbol 12-myristate 13-acetate (PMA; Sigma catalog #P8139), and then incubated overnight. The next day, media was replaced with assay media [RPMI (Gibco catalog #11875-093), 0.01% bovine serum albumin (BSA)]. Compounds were serially diluted in DMSO and then added to wells one hour prior to the addition of 12.5 ug/ml Gramicidin (Enzo Lifescience, catalog #ALX-350-233-M005). All incubations were carried out at 37° C. (5% CO2/95% air). Following a 3-hour treatment with gramicidin, cells are fixed with 4% paraformaldehyde and stored at 4° C. until immunofluorescence staining.
Immunofluorescence staining: Anti-ASC antibody (MBL catalog #D086-3) was desalted and labeled with Alexa 488 antibody labeling kit (Thermo catalog #A20181) prior to use as described below. After fixation, the following steps were carried out at room temperature. Cells were first permeabilized with 0.3% Triton X-100 in phosphate-buffered saline (PBS) for 15 minutes and then incubated in blocking buffer containing 5% goat serum, 0.3% tween-20 and 0.03% sodium azide in PBS for 1 hour. Cells were stained with a mixture of ASC-Alexa 488 antibody (diluted 1:200 in blocking buffer) and nuclear stain DRAQ5 (1:5000 in blocking buffer, Thermo catalog #62251) in blocking buffer for 1 hour. Following a wash with 0.3% Tween-20 in PBS, plates were imaged with an Opera Phenix High Content Screening System. The number of DRAQ5 positive cells containing ASC SPECKS were quantified in each well.
Data analysis: EC50 values were calculated by standard curve-fitting analysis using an internally developed program in TIBCO Spotfire software.
`C[C@@H]1CN(c2nnc(-c3ccc(C(F)(F)F)cc3O)c3cnccc23)C[C@H](C)[C@]1(C)O` [Example 17, (3S,4s,5R)-1-(4-(2-hydroxy-4-(trifluoromethyl)phenyl)pyrido[3,4-d]pyridazin-1-yl)-3,4,5-trimethylpiperidin-4-ol] gave an EC50 of 201 nM.
`C[C@@H]1CN(c2nnc(-c3ccc(C(F)(F)F)cc3O)c3cnccc23)C[C@H](C)[C@H]1O` [Example 19, (3S,4r,5R)-1-(4-(2-hydroxy-4-(trifluoromethyl)phenyl)pyrido[3,4-d]pyridazin-1-yl)-3,5-dimethylpiperidin-4-ol] showed an EC50 of 68 nM.
For `Cc1ccc2c(N3C[C@@H](C)O[C@@H](C)C3)nnc(-c3ccc(C(F)(F)F)cc3O)c2c1` [Example 21, 2-(4-((cis)-2,6-dimethylmorpholino)-7-methylphthalazin-1-yl)-5-(trifluoromethyl)phenol], the EC50 was 815 nM.
`C[C@]1(O)CCN(c2nnc(-c3ccc(C(F)(F)F)cc3O)c3cccnc23)C1` [Example 22, (S)-1-(5-(2-hydroxy-4-(trifluoromethyl)phenyl)pyrido[2,3-d]-pyridazin-8-yl)-3-methylpyrrolidin-3-ol] showed an EC50 of 124 nM.
`CN1CC[C@H]2CCN(c3nnc(-c4ccc(C(F)(F)F)cc4O)c4cccnc34)[C@H]2C1` [Example 23, 2-(8-((3aS,7aR)-6-methyloctahydro-1H-pyrrolo[2,3-c]pyridin-1-yl)pyrido[2,3-d]pyridazin-5-yl)-5-(trifluoromethyl)phenol] was tested, and the EC50 was 5 nM.
Work on `C[C@@H]1CN(c2nnc(-c3ccc(C(F)(F)F)cc3O)c3cccnc23)C[C@H](C)[C@]1(C)O` [Example 24, (3S,4s,5R)-1-(5-(2-hydroxy-4-(trifluoromethyl)phenyl)pyrido [2,3-d]pyridazin-8-yl)-3,4,5-trimethylpiperidin-4-ol] yielded an EC50 of 52 nM.
`O=C1NC2(CCN(c3nnc(-c4ccc(C(F)(F)F)cc4O)c4cccnc34)CC2)CO1` [Example 25, 8-(5-(2-hydroxy-4-(trifluoromethyl)phenyl)pyrido [2,3-d]pyridazin-8-yl)-3-oxa-1,8-diazaspiro[4.5]decan-2-one] showed an EC50 of 148 nM.
Work on `C[C@@H]1CN(c2nnc(-c3ccc(C(F)(F)F)cc3O)c3cccnc23)C[C@H](C)S1(=O)=O` [Example 26, (cis)-4-(5-(2-hydroxy-4-(trifluoromethyl)phenyl)pyrido [2,3-d]pyridazin-8-yl)-2,6-dimethylthiomorpholine 1,1-dioxide] yielded an EC50 of 96 nM.
`Oc1cc(C(F)(F)F)ccc1-c1nnc(N2CCC3(CCCO3)CC2)c2ncccc12` [Example 30, 2-(8-(1-oxa-8-azaspiro[4.5]decan-8-yl)pyrido[2,3-d]pyridazin-5-yl)-5-(trifluoromethyl)phenol] showed an EC50 of 1270 nM.
Molecule `Oc1cc(C(F)(F)F)ccc1-c1nnc(N2CCC3(CCOC3)CC2)c2ncccc12` [Example 31, 2-(8-(2-oxa-8-azaspiro[4.5]decan-8-yl)pyrido[2,3-d]pyridazin-5-yl)-5-(trifluoromethyl)phenol] has an EC50 of 915 nM.
`O=C1COC2(CCN(c3nnc(-c4ccc(C(F)(F)F)cc4O)c4cccnc34)CC2)CN1` [Example 32, 9-(5-(2-hydroxy-4-(trifluoromethyl)phenyl)pyrido [2,3-d]pyridazin-8-yl)-1-oxa-4,9-diazaspiro[5.5]undecan-3-one] gave an EC50 of 330 nM.
For `C[C@@H]1CN(c2nnc(-c3ccc(C(F)(F)F)cc3O)c3cccnc23)C[C@H](C)C1(F)F` [Example 33, 2-(8-((cis)-4,4-difluoro-3,5-dimethylpiperidin-1-yl)pyrido[2,3-d]pyridazin-5-yl)-5-(trifluoromethyl)phenol], the EC50 was 221 nM.
For `CC(=O)N1CCCC12CCN(c1nnc(-c3ccc(C(F)(F)F)cc3O)c3cccnc13)CC2` [Example 34, 1-(8-(5-(2-hydroxy-4-(trifluoromethyl)phenyl)pyrido [2,3-d]pyridazin-8-yl)-1,8-diazaspiro[4.5]decan-1-yl)ethan-1-one], the EC50 was 1510 nM.
With `CC(=O)N1CCC2(CCN(c3nnc(-c4ccc(C(F)(F)F)cc4O)c4cccnc34)CC2)C1` [Example 35, 1-(8-(5-(2-hydroxy-4-(trifluoromethyl)phenyl)pyrido [2,3-d]pyridazin-8-yl)-2,8-diazaspiro[4.5]decan-2-yl)ethan-1-one] the EC50 was 420 nM.
`CN1CC2(CCN(c3nnc(-c4ccc(C(F)(F)F)cc4O)c4cccnc34)CC2)OC1=O` [Example 36, 8-(5-(2-hydroxy-4-(trifluoro-methyl)phenyl)pyrido[2,3-d]-pyridazin-8-yl)-3-methyl-1-oxa-3,8-diazaspiro[4.5]decan-2-one] was tested, and the EC50 was 742 nM.
In the case of `CC1(C)CCOC12CCN(c1nnc(-c3ccc(C(F)(F)F)cc3O)c3cccnc13)CC2` [Example 37, 2-(8-(4,4-dimethyl-1-oxa-8-azaspiro[4.5]decan-8-yl)pyrido[2,3-d]pyridazin-5-yl)-5-(trifluoromethyl)phenol], the EC50 is reported as 1130 nM.
`CN1C(=O)CCC12CCN(c1nnc(-c3ccc(C(F)(F)F)cc3O)c3cccnc13)CC2` [Example 39, 8-(5-(2-hydroxy-4-(trifluoromethyl)phenyl)pyrido [2,3-d]pyridazin-8-yl)-1-methyl-1,8-diazaspiro[4.5]decan-2-one] showed an EC50 of 563 nM.
Work on `O=C1NCC2(CCN(c3nnc(-c4ccc(C(F)(F)F)cc4O)c4cccnc34)CC2)O1` [Example 40, 8-(5-(2-hydroxy-4-(trifluoromethyl)phenyl)pyrido [2,3-d]pyridazin-8-yl)-1-oxa-3,8-diazaspiro[4.5]decan-2-one] yielded an EC50 of 304 nM.
`Oc1cc(C(F)(F)F)ccc1-c1nnc(N2C[C@@H]3[C@H](C2)C3(F)F)c2ncccc12` [Example 41, 2-(8-(6,6-difluoro-3-azabicyclo[3.1.0]hexan-3-yl)pyrido[2,3-d]pyridazin-5-yl)-5-(trifluoromethyl)phenol] gave an EC50 of 999 nM.
For `O=C1CCC2(CCN(c3nnc(-c4ccc(C(F)(F)F)cc4O)c4cccnc34)CC2)O1` [Example 42, 8-(5-(2-hydroxy-4-(trifluoromethyl)phenyl)pyrido [2,3-d]pyridazin-8-yl)-1-oxa-8-azaspiro[4.5]decan-2-one], the EC50 was 952 nM.
In the case of `CC(C)(O)[C@@H]1CCN(c2nnc(-c3ccc(C(F)(F)F)cc3O)c3cccnc23)C1` [Example 49, (R)-2-(8-(3-(2-hydroxypropan-2-yl)pyrrolidin-1-yl)pyrido[2,3-d]pyridazin-5-yl)-5-(trifluoromethyl)phenol], the EC50 is reported as 1790 nM.
`CC(C)(O)[C@H]1CCN(c2nnc(-c3ccc(C(F)(F)F)cc3O)c3cccnc23)C1` [Example 50, (S)-2-(8-(3-(2-hydroxypropan-2-yl)pyrrolidin-1-yl)pyrido[2,3-d]pyridazin-5-yl)-5-(trifluoromethyl)phenol] showed an EC50 of 1330 nM.
Work on `Cc1cc(C(F)(F)F)ccc1-c1nnc([C@H]2C[C@@H](C)O[C@@H](C)C2)c2ccccc12` [Example 53, 1-((2R,4r,6S)-2,6-dimethyltetrahydro-2H-pyran-4-yl)-4-(2-methyl-4-(trifluoromethyl)phenyl)phthalazine] yielded an EC50 of 3970 nM.
In the case of `C[C@@H]1C[C@](O)(c2nnc(-c3ccc(C(F)(F)F)cc3O)c3cccnc23)C[C@H](C)O1` [Example 54, (2R,4s,6S)-4-(5-(2-hydroxy-4-(trifluoromethyl)phenyl)pyrido[2,3-d]-pyridazin-8-yl)-2,6-dimethyltetrahydro-2H-pyran-4-ol], the EC50 is reported as 1100 nM.
For `C[C@@H]1C[C@@](O)(c2nnc(-c3ccc(C(F)(F)F)cc3O)c3cccnc23)C[C@H](C)O1` [Example 55, (2R,4r,6S)-4-(5-(2-hydroxy-4-(trifluoromethyl)phenyl)pyrido[2,3-d]-pyridazin-8-yl)-2,6-dimethyltetrahydro-2H-pyran-4-ol], the EC50 was 1340 nM.
For `C[C@]1(O)CCN(c2nnc(-c3ccc(C(F)(F)F)cc3O)c3ccc(C(F)F)nc23)C1` [Example 56], the EC50 was 90 nM.
Molecule `C[C@]1(O)CCN(c2nnc(-c3ccc(C(F)(F)F)cc3O)c3cc(C(F)F)cnc23)C1` [Example 57] has an EC50 of 1570 nM.

Source: patent publication US20240124451A1, “PHTHALAZINE DERIVATIVES USEFUL AS INHIBITORS OF NOD-LIKE RECEPTOR PROTEIN 3” (Merck Sharp & Dohme LLC, priority 2022, published 2024)
